Here are results for two compounds from US7192982B2, “Modulators of peroxisome proliferator activated receptors” (Ligand Pharmaceuticals, Inc., priority 2001, dated 2007).

Data set [1] concerns mice, transgenic for human apoAI. The data set is described as follows: Evaluation of triglyceride and cholesterol levels in HuapoAI transgenic mice. The class given is in vivo. Particulars: hu apoAI transgenic mice. Here is the method:
Five to six week old male mice, transgenic for human apoAI [C57B1/6-tgn(apoa1)1rub, Jackson Laboratory, Bar Harbor, Me.] were housed five per cage (10″×20″×8″ with aspen chip bedding) with food (Purina 5001) and water available at all times. After an acclimation period of 2 weeks, animals were individually identified by ear notches, weighed and assigned to groups based on body weight. Beginning the following morning, mice were dosed daily by oral gavage for 7 days using a 20 gauge, 1½″ curved disposable feeding needle. Treatments were test compounds (30 mg/kg), a positive control (fenofibrate, 100 mg/kg) or vehicle [1% carboxymethylcellulose (w/v)/0.25% Tween80 (w/v); 0.2 ml/mouse]. Prior to termination on day 7, mice were weighed and dosed. Three hours after dosing, animals were anesthetized by inhalation of isoflurane (2–4%) and blood obtained via cardiac puncture (0.7–1.0 ml). Whole blood was transferred to serum separator tubes (Vacutainer SST), chilled on ice and permitted to clot. Serum, was obtained after centrifugation at 4° C. and frozen until analysis for triglycerides, total cholesterol, compound levels and serum lipoprotein profiled by fast protein liquid, chromatography (FPLC) coupled to an inline detection system. After sacrifice by cervical dislocation, the liver, heart and epididymal fat pads were excised and weighed.
Glucose was measured colorimetrically by using commercially purchased reagents (Sigma #315-500). According to the manufacturers, the procedures were modified from published work (McGowan et al. Clin Chem, 20:470–5 (1974) and Keston, A. Specific colorimetric enzymatic analytical reagents for glucose. Abstract of papers 129th Meeting ACS, 31C (1956).); and depend on the release of a mole of hydrogen peroxide for each mole of analyte coupled with a color reaction first described by Trinder (Trinder, P. Ann Clin Biochem, 6:24 (1969)). The absorbance of the dye produced was linearly related to the analyte in the sample. The assays was further modified for use in a 96 well format. Standards (Sigma #339-11, Sigma #16-11, and Sigma #CC0534 for glucose, triglycerides and total cholesterol, respectively), quality control plasma (Sigma # A2034), and samples-(2 or 5 μl well) were measured in duplicate using 200 μl of reagent. An additional aliquot of sample, pipetted to a third well and diluted in 200 μl water, provided ai blank for each specimen. Plates were incubated at room temperature (18, 15, and 10 minutes for glucose, triglycerides and total cholesterol, respectively) on a plate shaker and absorbance read at 500 nm (glucose and total cholesterol) or 540 nm (triglycerides) on a plate reader. Sample absorbance was compared to a standard curve (100–800, 10–500, and 100–400 mg/dl for glucose, triglycerides and total cholesterol, respectively). Values for the quality control sample wee consistently within the expected range and the coefficient of variation for samples is below 10%. All samples from an experiment were assayed at the same time to minimize inter-assay variability.
Serum lipoproteins were separated and cholesterol was quantitated with an in-line detection system. Sample was applied to a Superose® 6 HR 10/30 size exclusion column (Amersham Pharmacia Biotech) and eluted with phosphate buffered saline-EDTA at 0.5 ml/min. Cholesterol reagent (Roche Diagnostics Chol/HP 704036) at 0.16 ml/min was mixed with the column effluent through a T-connection, and the mixture was passed through a 15 m×0.5 mm id knitted tubing reactor immersed in a 37° C. water bath. The colored product produced in the presence of cholesterol was monitored in the flow stream at 505 nm, and the analog voltage from the monitor was converted to a digital signal for collection and analysis. The change in voltage corresponding to change in cholesterol concentration was plotted against time, and the area under the curve corresponding to the elution of VLDL, LDL and HDL was calculated (Perkin Elmer Turbochrome software).

Structures are written as SMILES.

Take `CC(C)OC(=O)C(C)(C)Oc1ccc(C(=O)c2ccc(Cl)cc2)cc1` [fenofibrate]: in data set [1] (FPLC of pooled sera, 100 mg/kg oral daily for 7 days, versus vehicle), the “mean percent increase of HDLc” value stood at 48%. Besides, the “high-density lipoprotein cholesterol (HDLc) peak area” value in data set [1] (FPLC of pooled sera, 100 mg/kg oral daily for 7 days, vehicle 47 v-sec to 62 v-sec) is given as 68–96 v-sec. Also, the “mean elevation of total serum cholesterol” value in data set [1] (100 mg/kg oral gavage daily for 7 days, versus vehicle) amounted to 41%. Also, the “average total serum cholesterol values” in data set [1] (100 mg/kg oral gavage daily for 7 days, vehicle about 140 to 180 mg/dl) was 190 to 280 mg/dL. In addition, in data set [1] (serum, 100 mg/kg oral gavage daily for 7 days, versus vehicle), the “mean reduction of triglycerides” value stood at 37%. In data set [1] (serum, 100 mg/kg oral gavage daily for 7 days, vehicle about 60 to 80 mg/dl), this compound yielded an average triglycerides values of 33 to 58 mg/dL.

Turning to `CO[C@@H](Cc1ccc(C#CCOc2ccc(-c3ccccc3)cc2)cc1)C(=O)O` [Example 1, (2S)-3-{4-[3-(Biphenyl-4-yloxy)-prop-1-ynyl]-phenyl}-2-methoxy-propionic acid], the melting point is 111 to 112 °C.
